Legend:
[1] = system: humans; conditions: corresponding to the rat value, ref Richard et al., 2009, Fernstrom, 2012; cited from earlier work
Excerpt: (§1) Also, the indole ring of tryptophan prefers to interact with a […], and the indole NH being close to a lipid carbonyl ester leads W-containing peptides to be powerful and safe promising antibiotic candidates with different beneficial effects ([Dixon et al., 2003]; ...

[2] = system: rats; conditions: ref Richard et al., 2009, Fernstrom, 2012; cited from earlier work
Excerpt: as §1

[3] = system: E. coli ATCC 25922; test: Mouse infection model, bacterial load; type: in vivo; conditions: ICR mice, i.p. E. coli 1 × 10^8 CFU/ml, 5 mg/kg i.p. 1 h later, 6 h, P < 0.05
Procedure: Female Institute for Cancer Research (ICR) mice (SPF, 20–25 g) were purchased from WeiTonglihua, Co., Ltd. (Beijing, China). Mice were fed and acclimatized as described ([Chou et al., 2019]). E. coli ATCC 25922 was adopted as the pathogenic bacterium for the infection model in this study. In this mouse model, the antimicrobial activity of S7 was determined by colony counting of blood and various organs. Briefly, the mice were divided into four groups (six groups for anti-inflammatory assay) and received intraperitoneal injections of 100 μl E. coli (1 × 10^8 CFU/ml) cells in 0.9% NaCl or only 100 μl 0.9% NaCl as control. 1 h later, 100 μl S7 (5 mg/kg), 100 μl 0.9% NaCl, 100 μl gentamicin (5 mg/kg) or 100 μl 0.9% NaCl, was intraperitoneally injected to the treated or control groups, respectively. And the mice were sacrificed via excessive anesthesia after 6 h post-challenge. The anti-inflammatory effect of S7 was measured by testing the levels of TNF-α, IL-6, and IL-1β in serum using a TNF-α enzyme-linked immunosorbent assay (ELISA) kit, an IL-6 ELISA kit and an IL-1β ELISA kit according to the manufacturer’s instructions (Shanghai Jin Ma Laboratory Equipment, Co., Ltd.).

[4] = system: E. coli ATCC 25922; test: Drug resistance experiment (sequential passaging); type: cell-based, Escherichia coli; conditions: E. coli 25922, passaged at sub-MIC for 30 days
Procedure: Resistance development of E. coli ATCC 25922 against antibiotics was investigated using a sequential passaging method. Briefly, in the first generation, the MIC value was determined as described previously. After a 24 h incubation, bacterial cells growing in a well with a half-MIC level were harvested and diluted to 0.05 at OD600, followed by a 1:10 dilution in fresh MHB. The inoculum was subjected to subsequent passage MIC testing, and the process was repeated for 30 days. The fold change in MIC was plotted against the number of passages.

Row | SMILES | median lethal dose (LD50), corresponding dose in humans [1] [mg/kg] | median lethal dose (LD50) [2] [mg/kg] | number of colonies in blood, kidney and liver versus E. coli group [3] | resistance development (change in MIC on serial passaging) [4]
1 | N[C@@H](Cc1c[nH]c2ccccc12)C(=O)O [Tryptophan (W), Tryptophan] | ~1400 | 1600 | – | –
2 | CNC(C)C1CCC(N)C(OC2C(N)CC(N)C(OC3OCC(C)(O)C(NC)C3O)C2O)O1 (stereo not shown) [gentamicin] | – | – | significantly decreased | induced rapid resistance acquisition
